According to ChEMBL document CHEMBL1141611, “Truncation and non-natural amino acid substitution studies on HTLV-I protease hexapeptidic inhibitors” (Bioorg Med Chem Lett, 2008):
*1 amine or outer side, *2 acyl side, *3 side chain or, on linkers, in order; H or OH if unused. Where a SMILES comes first, the peptide text is derived from it. [ ]: non-standard residue; d: D form. X1 = O=C([C@@H](O)[C@H](Cc1ccccc1)N[*:1])[*:2]; Thz(5,5-Me2) = CC1(C)SCN[C@@H]1C(=O)O

Key:
Gag-Pro polyprotein = Gag-Pro polyprotein (Human T-cell leukemia virus 1 (strain Japan ATK-1 subtype A) (HTLV-1), UniProt P10274, L40I); assay: Inhibition of HTLV1 protease L40I mutant expressed in Escherichia coli BL21(DE3)pLysS; parameters: species or system Human T-cell leukemia virus type I
Gag-Pro polyprotein, sequence (P10274 450-574 L489I): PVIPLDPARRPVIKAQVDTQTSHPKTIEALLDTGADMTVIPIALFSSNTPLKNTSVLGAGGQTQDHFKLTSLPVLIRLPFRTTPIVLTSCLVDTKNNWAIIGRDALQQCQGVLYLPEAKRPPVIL

[1] = biological target: Protease (Human immunodeficiency virus 1) (UniProt Q9YQ12); assay: Inhibition of HIV1 protease at 50 nM
Protease (Human immunodeficiency virus 1), sequence (Q9YQ12 as listed by the source): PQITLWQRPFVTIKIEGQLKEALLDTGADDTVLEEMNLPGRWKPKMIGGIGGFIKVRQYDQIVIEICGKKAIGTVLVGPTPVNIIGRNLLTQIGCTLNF

| Compound | IC50 (Gag-Pro polyprotein) | inhibition [1] |
| --- | --- | --- |
| CC[C@H](C)[C@H](NC(C)=O)C(=O)N[C@@H](Cc1ccccc1)[C@H](O)C(=O)N1CSC(C)(C)[C@@H]1C(=O)N[C@H](C(=O)N[C@@H](CCSC)C(N)=O)[C@@H](C)CC | > 1 µM | 89% |
| CCCNC(=O)C1N(C(=O)[C@@H](O)[C@H](Cc2ccccc2)NC(=O)[C@@H](NC(=O)[C@@H](NC(C)=O)c2ccccc2)C(C)(C)C)CSC1(C)C (some centres undefined) | 0.193 µM | 98% |
| CSCC[C@H](NC(=O)[C@@H](NC(=O)[C@@H]1CCCN1C(=O)[C@@H](O)[C@H](Cc1ccccc1)NC(=O)[C@@H](NC(=O)[C@H](CCC(N)=O)NC(=O)[C@@H]1CCCN1)C(C)C)C(C)C)C(=O)N[C@@H](Cc1cnc[nH]1)C(=O)O (H-PQV[X1]PVMH-OH) | 0.159 µM | < 30% |
| CC[C@H](C)[C@H](NC(C)=O)C(=O)N[C@H](C(=O)N[C@@H](Cc1ccccc1)[C@H](O)C(=O)N1CSC(C)(C)[C@@H]1C(=O)N[C@H](C(=O)N[C@@H](C)C(N)=O)[C@@H](C)CC)[C@@H](C)CC | 0.16 µM | 82% |
| CC[C@H](C)[C@H](NC(=O)[C@@H]1N(C(=O)[C@@H](O)[C@H](Cc2ccccc2)NC(=O)[C@@H](NC(=O)[C@@H](NC(C)=O)c2ccccc2)C(C)(C)C)CSC1(C)C)C(=O)N[C@@H](CCSC)C(N)=O | 0.101 µM | 99% |
| CC(=O)N[C@H](C(=O)N[C@H](C(=O)N[C@@H](Cc1ccccc1)[C@H](O)C(=O)N1CSC(C)(C)C1C(=O)NCC1CC1)C(C)(C)C)c1ccccc1 (some centres undefined) | 0.146 µM | 99% |
| CSCC[C@H](NC(=O)[C@@H](NC(=O)[C@H]1N(C(=O)[C@@H](O)[C@H](Cc2ccccc2)NC(=O)[C@@H](NC(=O)[C@H](CCC(N)=O)NC(=O)[C@@H]2CCCN2)C(C)C)CSC1(C)C)C(C)C)C(=O)N[C@@H](Cc1c[nH]cn1)C(=O)O (H-PQV[X1][Thz(5,5-Me2)]VMH-OH) |  | 58% |
| CC[C@H](C)[C@H](NC(C)=O)C(=O)N[C@H](C(=O)N[C@@H](Cc1ccccc1)[C@H](O)C(=O)N1CSC(C)(C)[C@@H]1C(=O)N[C@H](C(=O)N[C@@H](CCSC)C(N)=O)[C@@H](C)CC)C(C)(C)C | 0.145 µM | 97% |
| CC[C@H](C)[C@H](NC(=O)[C@@H](NC(C)=O)c1ccccc1)C(=O)N[C@@H](Cc1ccccc1)[C@H](O)C(=O)N1CSC(C)(C)[C@@H]1C(=O)N[C@H](C(=O)N[C@@H](CCSC)C(N)=O)[C@@H](C)CC | 0.102 µM | 98% |
| CC[C@H](C)[C@H](NC(=O)[C@@H]1N(C(=O)[C@@H](O)[C@H](Cc2ccccc2)NC(=O)[C@@H](NC(=O)[C@@H](NC(C)=O)[C@@H](C)CC)[C@@H](C)CC)CSC1(C)C)C(N)=O | 0.249 µM | 57% |
| CC[C@H](C)[C@H](NC(C)=O)C(=O)N[C@H](C(=O)N[C@@H](Cc1ccccc1)[C@H](O)C(=O)N1CSC(C)(C)[C@@H]1C(=O)N[C@H](C(=O)N[C@@H](CCSC)C(N)=O)[C@@H](C)CC)c1ccccc1 | 0.32 µM | 88% |
| CSCC[C@H](NC(=O)[C@@H](NC(=O)[C@H]1N(C(=O)[C@@H](O)[C@H](Cc2ccccc2)NC(=O)[C@@H](NC(=O)[C@H](CCC(N)=O)NC(C)=O)C(C)C)CSC1(C)C)C(C)C)C(N)=O (Ac-QV[X1][Thz(5,5-Me2)]VM-NH2) | 0.353 µM | 96% |
| CC(=O)N[C@H](C(=O)N[C@H](C(=O)N[C@@H](Cc1ccccc1)[C@H](O)C(=O)N1CSC(C)(C)C1C(=O)NCC(C)C)C(C)(C)C)c1ccccc1 (some centres undefined) | 0.107 µM | > 99% |
| CC[C@H](C)[C@H](NC(C)=O)C(=O)N[C@H](C(=O)N[C@@H](Cc1ccccc1)[C@H](O)C(=O)N1CSC(C)(C)[C@@H]1C(=O)N[C@H](C(=O)N[C@@H](CCSC)C(N)=O)c1ccccc1)[C@@H](C)CC | 0.123 µM | 86% |
| CC[C@H](C)[C@H](NC(C)=O)C(=O)N[C@H](C(=O)N[C@@H](Cc1ccccc1)[C@H](O)C(=O)N1CSC(C)(C)[C@@H]1C(=O)N[C@H](C(=O)N[C@@H](CCSC)C(N)=O)C(C)(C)C)[C@@H](C)CC | 0.18 µM | 79% |
| CC[C@H](C)[C@H](NC(=O)[C@@H]1N(C(=O)[C@@H](O)[C@H](Cc2ccccc2)NC(=O)[C@@H](NC(=O)[C@@H](NC(C)=O)c2ccccc2)C(C)(C)C)CSC1(C)C)C(N)=O | 0.144 µM | 93% |
| CC[C@H](C)[C@H](NC(=O)[C@@H](NC(C)=O)C(C)(C)C)C(=O)N[C@@H](Cc1ccccc1)[C@H](O)C(=O)N1CSC(C)(C)[C@@H]1C(=O)N[C@H](C(=O)N[C@@H](CCSC)C(N)=O)[C@@H](C)CC | 0.201 µM | 98% |
| CC[C@H](C)[C@H](NC(C)=O)C(=O)N[C@H](C(=O)N[C@@H](Cc1ccccc1)[C@H](O)C(=O)N1CSC(C)(C)[C@@H]1C(=O)N[C@H](C(=O)N[C@@H](Cc1ccccc1)C(N)=O)[C@@H](C)CC)[C@@H](C)CC | 0.095 µM | 98% |
| CSCC[C@H](NC(=O)[C@@H](NC(=O)[C@H]1N(C(=O)[C@@H](O)[C@H](Cc2ccccc2)NC(=O)[C@@H](NC(=O)[C@H](CCC(N)=O)NC(=O)[C@@H]2CCCN2)C(C)C)CSC1(C)C)C(C)C)C(=O)N[C@@H](Cc1cnc[nH]1)C(=O)O (H-PQV[X1][Thz(5,5-Me2)]VMH-OH) | 0.152 µM |  |
| CC(=O)N[C@H](C(=O)N[C@H](C(=O)N[C@@H](Cc1ccccc1)[C@H](O)C(=O)N1CSC(C)(C)C1C(=O)NCc1ccccc1C)C(C)(C)C)c1ccccc1 (some centres undefined) | 0.103 µM | 99% |
| CC[C@H](C)[C@H](NC(=O)[C@@H]1N(C(=O)[C@@H](O)[C@H](Cc2ccccc2)NC(=O)[C@@H](NC(=O)[C@@H](NC(C)=O)c2ccccc2)C(C)(C)C)CSC1(C)C)C(=O)N[C@@H](CCC(N)=O)C(N)=O | 0.084 µM | 98% |
| CC(=O)N[C@H](C(=O)N[C@H](C(=O)N[C@@H](Cc1ccccc1)[C@H](O)C(=O)N1CSC(C)(C)C1C(=O)NCc1cccc(I)c1)C(C)(C)C)c1ccccc1 (some centres undefined) | 0.473 µM | 97% |
| C=C(C)CNC(=O)C1N(C(=O)[C@@H](O)[C@H](Cc2ccccc2)NC(=O)[C@@H](NC(=O)[C@@H](NC(C)=O)c2ccccc2)C(C)(C)C)CSC1(C)C (some centres undefined) | 0.14 µM | > 99% |
| C=CCNC(=O)C1N(C(=O)[C@@H](O)[C@H](Cc2ccccc2)NC(=O)[C@@H](NC(=O)[C@@H](NC(C)=O)c2ccccc2)C(C)(C)C)CSC1(C)C (some centres undefined) | 0.131 µM | > 99% |
| CC[C@H](C)[C@H](NC(C)=O)C(=O)N[C@H](C(=O)N[C@H](Cc1ccccc1)[C@H](O)C(=O)N1CSC(C)(C)[C@@H]1C(=O)N[C@H](C(=O)N[C@@H](CCSC)C(N)=O)[C@@H](C)CC)[C@@H](C)CC | 0.18 µM | 73% |
| CC[C@H](C)[C@H](NC(C)=O)C(=O)N[C@H](C(=O)N[C@@H](Cc1ccccc1)[C@H](O)C(=O)N1CSC(C)(C)[C@@H]1C(=O)N[C@H](C(=O)N[C@@H](CCC(N)=O)C(N)=O)[C@@H](C)CC)[C@@H](C)CC | 0.159 µM | 93% |
| CC(=O)N[C@H](C(=O)N[C@H](C(=O)N[C@@H](Cc1ccccc1)[C@H](O)C(=O)N1CSC(C)(C)C1C(=O)NCC(C)(C)C)C(C)(C)C)c1ccccc1 (some centres undefined) | 0.113 µM | 99% |
| CC[C@H](C)[C@H](NC(C)=O)C(=O)N[C@H](C(=O)N[C@@H](Cc1ccccc1)[C@H](O)C(=O)N1CSC(C)(C)[C@@H]1C(=O)N[C@H](C(=O)N[C@@H](CCSC)C(N)=O)[C@@H](C)CC)[C@@H](C)CC | 0.088 µM | 98% |
